Experimental data from publication PMC9742383, “From tryptamine to the discovery of efficient multi-target directed ligands against cholinesterase-associated neurodegenerative disorders” (Frontiers in Pharmacology, 2022).
Read-outs that look alike come from different tables or passages of the source.

Columns and labels:
in vitro [1] = assay: in vitro; design: MTT cytotoxicity, absorbance at 570 nm, HT-22 mouse hippocampal neuronal cells; conditions: mouse, read-out: IC50 ± SD / HT-22 ^a
Experimental: The cell lines present in this study were purchased from the China Center for Type Collection (CCTCC, China). For cytotoxicity assay, HT-22, BV2, SH-SY5Y, HepG2, and LO2 cells were incubated in 96-well plates at the density of 5 × 10³ per well. After incubation for 12 h at 37°C, the tested compounds with the required concentrations were added to the corresponding wells and continuously incubated for 24 h at 37°C. Then, the prepared MTT (3-[4,5-dimethyl-2-thiazolyl]-2,5-diphenyl-2H-tetrazolium bromide) solution was added to each well and co-incubated for another 4 h at 37°C. Then, the supernatant was removed, and 100 μl DMSO was added to each well. The OD value of each well was detected at 570 nm using a microplate reader (Bio-Rad Laboratories, CA, United States). The IC50 values were calculated using IBM SPSS Statistics 25.0 software. All experiments were performed in triplicate, and the results were shown as the mean ± SD. In order to explore the applicability of the synthesized CTDs in neurological diseases, the neuronal cytotoxicity of the synthesized compounds was evaluated on mouse hippocampal neuronal cell line HT-22. […] In view of these CTDs endowed strong inhibition efficacy on BuChE, we preliminarily evaluated their safety range by comparing their IC50 values on cytotoxicity and BuChE inhibitory activity. […] Therefore, the series of compounds with dibenzyl groups, especially compounds bearing ring carbon alkyl chains (2f-2h) and tertiary amine residues (2j-2u) with little cytotoxicity on HT-22, can be considered as potential lead building blocks for further structure optimization to develop novel effective agents against neurological diseases.

BuChE = BuChE (Equus caballus, UniProt P81908); assay: Ellman colorimetric assay; format: biochemical; design: gene BCHE; native enzyme from equine serum, purchased from Sigma-Aldrich
Chain of BuChE (P81908 whole entry): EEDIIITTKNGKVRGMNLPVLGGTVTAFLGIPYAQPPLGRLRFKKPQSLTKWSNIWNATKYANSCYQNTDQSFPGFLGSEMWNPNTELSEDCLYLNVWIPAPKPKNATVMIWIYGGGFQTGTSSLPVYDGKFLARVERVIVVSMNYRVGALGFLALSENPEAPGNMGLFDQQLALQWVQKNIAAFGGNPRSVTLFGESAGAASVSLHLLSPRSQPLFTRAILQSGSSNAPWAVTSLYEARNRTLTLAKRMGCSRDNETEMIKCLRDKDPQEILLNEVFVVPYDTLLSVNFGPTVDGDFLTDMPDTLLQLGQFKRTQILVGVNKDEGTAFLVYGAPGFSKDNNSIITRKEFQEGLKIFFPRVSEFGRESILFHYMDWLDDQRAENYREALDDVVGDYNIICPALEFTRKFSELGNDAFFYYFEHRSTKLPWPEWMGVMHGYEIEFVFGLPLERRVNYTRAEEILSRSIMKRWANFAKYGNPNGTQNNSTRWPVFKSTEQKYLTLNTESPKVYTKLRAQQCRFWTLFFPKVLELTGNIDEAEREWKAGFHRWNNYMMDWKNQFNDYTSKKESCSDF

AChE = biological target: T1, AChE (Electrophorus electricus, UniProt O42275); assay: Ellman colorimetric assay; format: biochemical
T1 construct: native enzyme, Type V-S lyophilized powder, Sigma-Aldrich
T1 sequence (O42275 24-633): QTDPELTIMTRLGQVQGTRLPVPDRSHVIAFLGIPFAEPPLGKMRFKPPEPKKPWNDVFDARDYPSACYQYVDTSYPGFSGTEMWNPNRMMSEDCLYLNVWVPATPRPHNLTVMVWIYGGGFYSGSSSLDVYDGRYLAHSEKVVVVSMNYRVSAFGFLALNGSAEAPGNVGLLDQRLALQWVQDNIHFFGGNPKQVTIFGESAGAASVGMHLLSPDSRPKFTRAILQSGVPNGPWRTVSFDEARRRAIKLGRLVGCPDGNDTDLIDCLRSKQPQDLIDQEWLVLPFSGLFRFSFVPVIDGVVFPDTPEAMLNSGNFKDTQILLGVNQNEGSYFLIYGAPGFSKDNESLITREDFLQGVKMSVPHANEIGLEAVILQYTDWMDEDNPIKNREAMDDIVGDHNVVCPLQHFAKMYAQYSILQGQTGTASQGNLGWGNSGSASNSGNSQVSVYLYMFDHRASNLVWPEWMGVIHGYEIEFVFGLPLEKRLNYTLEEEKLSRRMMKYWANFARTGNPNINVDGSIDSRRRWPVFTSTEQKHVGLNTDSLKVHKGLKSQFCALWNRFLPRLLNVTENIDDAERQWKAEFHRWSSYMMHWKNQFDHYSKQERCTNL

in vitro [2] = assay: in vitro; design: species or system LO2, HepG2; MTT cytotoxicity, absorbance at 570 nm; conditions: human, sh-sy5y; read-out: ^a IC50 ± SD (μM) / SH-SY5Y
Experimental: The cell lines present in this study were purchased from the China Center for Type Collection (CCTCC, China). For cytotoxicity assay, HT-22, BV2, SH-SY5Y, HepG2, and LO2 cells were incubated in 96-well plates at the density of 5 × 10³ per well. After incubation for 12 h at 37°C, the tested compounds with the required concentrations were added to the corresponding wells and continuously incubated for 24 h at 37°C. Then, the prepared MTT (3-[4,5-dimethyl-2-thiazolyl]-2,5-diphenyl-2H-tetrazolium bromide) solution was added to each well and co-incubated for another 4 h at 37°C. Then, the supernatant was removed, and 100 μl DMSO was added to each well. The OD value of each well was detected at 570 nm using a microplate reader (Bio-Rad Laboratories, CA, United States). The IC50 values were calculated using IBM SPSS Statistics 25.0 software. All experiments were performed in triplicate, and the results were shown as the mean ± SD. In order to further evaluate the applicability of the compounds with dibenzyl groups for neurological diseases, we also tested the cytotoxicity of the selected compounds (2f, 2h, 2j, 2m, 2o-2r, 2t, and 2u) bearing little toxicity on HT-22 cells, microglia cell line BV2, and human neuroblastoma cell line SH-SY5Y, which are widely used in the study of neurological diseases. […] In view of some carbamate-based ChE inhibitors reported to be hepatotoxic, we further performed the preliminary evaluation of the hepatotoxicity of the selected compounds on human normal liver cell line LO2 and human hepatocellular carcinoma cell line HepG2.

[3] = ht-22 hippocampal neuronal cells
[4] = read-out: IC50 ± SD ^a / BuChE ^a
[5] = read-out: IC50 ± SD ^a / AChE ^a

SMILES	CC50 at 24 h (in vitro [1]; [3]) [µM]	IC50 (BuChE; [4]) [µM]	IC50 (AChE; [5]) [µM]	CC50 at 24 h (in vitro [1]; ht-22) [µM]	IC50 (BuChE; read-out: IC50 ± SD / BuChE ^a) [µM]	IC50 (AChE; read-out: IC50 ± SD / AChE ^a) [µM]	CC50 at 24 h (in vitro [2]) [µM]
O=C(Oc1ccc2[nH]cc(CCNCc3ccccc3)c2c1)N1CCC1 [3q, 3-(2-(benzylamino)ethyl)-1H-indol-5-yl azetidine-1-carboxylate]	57.8 ± 2.88	0.00258 ± 0.00013	0.482 ± 0.00599				
CCN(CC)C(=O)Oc1ccc2[nH]cc(CCNCc3ccccc3)c2c1 [3k, 3-(2-(benzylamino)ethyl)-1H-indol-5-yl diethylcarbamate]	16 ± 0.39	0.0725 ± 0.00655	> 100				
O=C(NC1CCCCC1)Oc1ccc2[nH]cc(CCNCc3ccccc3)c2c1 [3h, 3-(2-(benzylamino)ethyl)-1H-indol-5-yl cyclohexylcarbamate]	11.6 ± 0.34	0.0435 ± 0.00335	> 100				
CN(C)C(=O)Oc1ccc2[nH]cc(CCNCc3ccccc3)c2c1 [3j, 3-(2-(benzylamino)ethyl)-1H-indol-5-yl dimethylcarbamate]	21.7 ± 0.72	0.132 ± 0.00359	1.91				
CCCCCNC(=O)Oc1ccc2[nH]cc(CCN)c2c1 [4c, 3-(2-aminoethyl)-1H-indol-5-yl pentylcarbamate]	> 100	0.121 ± 0.00838	> 100				
CCCCCCNC(=O)Oc1ccc2[nH]cc(CCN)c2c1 [4d, 3-(2-aminoethyl)-1H-indol-5-yl hexylcarbamate]	25.2 ± 1.37	0.0277 ± 0.00204	> 100				
CCCN(CCC)C(=O)Oc1ccc2[nH]cc(CCNCc3ccccc3)c2c1 [3l, 3-(2-(benzylamino)ethyl)-1H-indol-5-yl dipropylcarbamate]	6.31 ± 0.39	0.044 ± 0.00184	> 100				
O=C(Oc1ccc2[nH]cc(CCN(Cc3ccccc3)Cc3ccccc3)c2c1)N(c1ccccc1)c1ccccc1 [2n, 3-(2-(dibenzylamino)ethyl)-1H-indol-5-yl diphenylcarbamate]				> 100	0.2623 ± 0.00248	> 100	
CCCCNC(=O)Oc1ccc2[nH]cc(CCNCc3ccccc3)c2c1 [3b, 3-(2-(benzylamino)ethyl)-1H-indol-5-yl butylcarbamate]	18.5 ± 0.81	0.0237 ± 0.00118	1.69				
CN(C(=O)Oc1ccc2[nH]cc(CCNCc3ccccc3)c2c1)c1ccccc1 [3p, 3-(2-(benzylamino)ethyl)-1H-indol-5-yl methyl(phenyl)carbamate]	11 ± 1.12	0.0254 ± 0.00027	7.05				
O=C(Oc1ccc2[nH]cc(CCNCc3ccccc3)c2c1)N1CCOCC1 [3u, 3-(2-(benzylamino)ethyl)-1H-indol-5-yl morpholine-4-carboxylate]	51.3 ± 2.55	0.112 ± 0.00737	> 100				
CCCNC(=O)Oc1ccc2[nH]cc(CCN(Cc3ccccc3)Cc3ccccc3)c2c1 [2a, 3-(2-(dibenzylamino)ethyl)-1H-indol-5-yl propylcarbamate]				51.58 ± 0.05	0.0332 ± 0.00499	> 100	
O=C(Oc1ccc2[nH]cc(CCNCc3ccccc3)c2c1)N1CCCC1 [3r]	31.7 ± 1.64	0.0405 ± 0.00179	1.82				
CON(C)C(=O)Oc1ccc2[nH]cc(CCNCc3ccccc3)c2c1 [3o, 3-(2-(benzylamino)ethyl)-1H-indol-5-yl methoxy(methyl)carbamate]	50.4 ± 1.07	0.0588 ± 0.00292	2.61				
O=C(NC1CCCC1)Oc1ccc2[nH]cc(CCNCc3ccccc3)c2c1 [3g, 3-(2-(benzylamino)ethyl)-1H-indol-5-yl cyclopentylcarbamate]	18.2 ± 0.95	0.0136 ± 0.0007	27.2				
CCCCCCCNC(=O)Oc1ccc2[nH]cc(CCNCc3ccccc3)c2c1 [3e, 3-(2-(benzylamino)ethyl)-1H-indol-5-yl heptylcarbamate]	6.49 ± 0.34	0.0336 ± 0.00164	1.13				
O=C(NC1CCCC1)Oc1ccc2[nH]cc(CCN(Cc3ccccc3)Cc3ccccc3)c2c1 [2g, 3-(2-(dibenzylamino)ethyl)-1H-indol-5-yl cyclopentylcarbamate]				57.3 ± 4.3	0.0337 ± 0.00162	> 100	
CCCCNC(=O)Oc1ccc2[nH]cc(CCN(Cc3ccccc3)Cc3ccccc3)c2c1 [2b, 3-(2-(dibenzylamino)ethyl)-1H-indol-5-yl butylcarbamate]				40.6 ± 1.12	0.003 ± 0.00021	> 100	
CCCCN(CCCC)C(=O)Oc1ccc2[nH]cc(CCNCc3ccccc3)c2c1 [3m, 3-(2-(benzylamino)ethyl)-1H-indol-5-yl dibutylcarbamate]	3.87 ± 0.35	0.0974 ± 0.00853	19.8				
O=C(Nc1ccccc1)Oc1ccc2[nH]cc(CCNCc3ccccc3)c2c1 [3i, 3-(2-(benzylamino)ethyl)-1H-indol-5-yl phenylcarbamate]	18.4 ± 0.43	0.11 ± 0.00522	23.3				
O=C(Oc1ccc2[nH]cc(CCNCc3ccccc3)c2c1)N(c1ccccc1)c1ccccc1 [3n, 3-(2-(benzylamino)ethyl)-1H-indol-5-yl diphenylcarbamate]	0.54 ± 0.03	0.156 ± 0.00358	> 100				
CCCCCCNC(=O)Oc1ccc2[nH]cc(CCNCc3ccccc3)c2c1 [3d, 3-(2-(benzylamino)ethyl)-1H-indol-5-yl hexylcarbamate]	16.3 ± 1.19	0.019 ± 0.00029	2.44				
CCN(CC)C(=O)Oc1ccc2[nH]cc(CCN(Cc3ccccc3)Cc3ccccc3)c2c1 [2k, 3-(2-(dibenzylamino)ethyl)-1H-indol-5-yl diethylcarbamate]				54.68 ± 0.42	0.3209 ± 0.00206	> 100	
CCCN(CCC)C(=O)Oc1ccc2[nH]cc(CCN(Cc3ccccc3)Cc3ccccc3)c2c1 [2l, 3-(2-(dibenzylamino)ethyl)-1H-indol-5-yl dipropylcarbamate]				38.6 ± 0.9	0.0159 ± 0.00055	> 100	
O=C(Oc1ccc2[nH]cc(CCNCc3ccccc3)c2c1)N1CCCCCC1 [3t, 3-(2-(benzylamino)ethyl)-1H-indol-5-yl azepane-1-carboxylate]	11.9 ± 0.39	0.0232 ± 0.00094	> 100				
O=C(Nc1ccccc1)Oc1ccc2[nH]cc(CCN(Cc3ccccc3)Cc3ccccc3)c2c1 [2i, 3-(2-(dibenzylamino)ethyl)-1H-indol-5-yl phenylcarbamate]				41.8 ± 2.31	0.0558 ± 0.00314	> 100	
CCCCCCNC(=O)Oc1ccc2[nH]cc(CCN(Cc3ccccc3)Cc3ccccc3)c2c1 [2d, 3-(2-(dibenzylamino)ethyl)-1H-indol-5-yl hexylcarbamate]				37.6 ± 1.92	0.00147 ± 0.00015	> 100	
CCCNC(=O)Oc1ccc2[nH]cc(CCNCc3ccccc3)c2c1 [3a, 3-(2-(benzylamino)ethyl)-1H-indol-5-yl propylcarbamate]	31.3 ± 2.32	0.0182 ± 0.00068	1.95				
CON(C)C(=O)Oc1ccc2[nH]cc(CCN(Cc3ccccc3)Cc3ccccc3)c2c1 [2o, 3-(2-(dibenzylamino)ethyl)-1H-indol-5-yl methoxy(methyl)carbamate]				72.1 ± 2.23	0.00865 ± 0.00034	2.93	> 100
O=C(Oc1ccc2[nH]cc(CCN(Cc3ccccc3)Cc3ccccc3)c2c1)N1CCCCC1 [2s, 3-(2-(dibenzylamino)ethyl)-1H-indol-5-yl piperidine-1-carboxylate]				42.7 ± 2.09	0.0334 ± 0.00521	> 100	
